Data as given in patent US10201532B2, “Compounds and their use” (ALLECRA THERAPEUTICS GMBH, priority 2010, dated 2019).

Columns and labels:
[1] = tested on: K. pneumoniae UMM3 (KPC2); assay: Synergistic broth micro-dilution MIC; format: cell-based, Klebsiella pneumoniae; settings: BLI at 4 μg/mL
[2] = tested on: E. cloacae 01 MGH 049 (KPC2, AmpC); assay: Synergistic broth micro-dilution MIC; format: cell-based; settings: BLI at 4 μg/mL
E. coli BAA-201 (TEM-3) = assay: MIC of Piperacillin with inhibitor, ESBL isolates; format: cell-based
[3] = tested on: K. pneumoniae 700603 (SHV-18); assay: MIC of Piperacillin with inhibitor, ESBL isolates; format: cell-based, Klebsiella pneumoniae
[4] = tested on: KPC-2 producing K. pneumoniae (ATCC BAA-1705); assay: Synergistic broth micro-dilution MIC (checkerboard); format: cell-based, Klebsiella pneumoniae; settings: for Activity with imipenem against the KPC (2 & 3) producing strains, in words: summary of Table 2, all five strains
E. coli BAA-200 (SHV-4) = assay: MIC of Piperacillin with inhibitor, ESBL isolates; format: cell-based, Escherichia coli
[5] = tested on: P. mirabilis BAA-663 (TEM-89); assay: MIC of Piperacillin with inhibitor, ESBL isolates; format: cell-based
[6] = tested on: K. pneumoniae NCTC 13438 (KPC3); assay: Synergistic broth micro-dilution MIC; format: cell-based, Klebsiella pneumoniae; settings: BLI at 4 μg/mL
E. coli BAA-197 (TEM-12) = assay: MIC of Piperacillin with inhibitor, ESBL isolates; format: cell-based, Escherichia coli
E. coli BAA-199 (SHV-3) = assay: MIC of Piperacillin with inhibitor, ESBL isolates; format: cell-based, Escherichia coli
E. coli Ecoli233 (KPC3) [7] = assay: Synergistic broth micro-dilution MIC; format: cell-based, Escherichia coli
E. coli BAA-198 (TEM-26) = assay: MIC of Piperacillin with inhibitor, ESBL isolates; format: cell-based, Escherichia coli
[8] = tested on: K. pneumoniae ATCC BAA-1705 (KPC2); assay: Disk zone of inhibition, antibiotic + Compound-1 on same disk (Methodology 2); format: cell-based, Klebsiella pneumoniae; settings: CAZ 30 μg or IPM 10 μg disk alone
From the text: (§1) In this experiment, Compound-1 is used as a diagnostic reagent for the detection of β-lactamases belonging to the families KPC & ESBL (e.g., SHV18) producing Enterobacteriaceae. A simple set of absorbent paper disks impregnated with antibiotic on agar medium is used for the detection.
(§2) • 0.5 McFarland of the test organism was inoculated at 1:10 dilution on Muller • Hinton Agar plates • Test organisms: Klebsiella pneumoniae (K.p) ATCC BAA-1705, Klebsiella pneumoniae ATCC 700603, Escherichia coli (E.c) Ecoli233 • Carbapenem (e.g., Imipenem [IPM] 10 μg) and cephalosporin (e.g., Ceftazidime [CAZ] 30 μg) paper disks (7 mm) were placed on the inoculated agar plates • Compound-1 (60 μg) disk was placed at a distance of 7 & 10 mm from the carbapenem and cephalosporin disks. • The presence of expressed carbapenemases or ESBLs was measured as the expansion of Imipenem or Ceftazidime's inhibition zones due to synergy in the presence of Compound-1.
(§3) The methodology remains the same as Methodology 1 except the following change • Compound-1 (60 μg) was added on the same disk in combination with a carbapenem (e.g., Imipenem 10 μg) or cephalosporin (e.g., Ceftazidime 30 μg) and placed on the inoculated agar plate. • The presence of the expressed carbapenemases or ESBLs was measured as an increase in Imipenem or Ceftazidime's zone diameter in combination with Compound-1 compared to antibiotic alone. Results

E. coli Ecoli233 (KPC3) [9] = assay: as above; format: cell-based, Escherichia coli; settings: CAZ 30 μg or IPM 10 μg disk alone
From the text: as §1, §2, §3

[10] = tested on: KPC-3 expressing E. coli (J53 R6206); assay: Synergistic broth micro-dilution MIC (checkerboard); format: cell-based, Escherichia coli; settings: no BLI
[11] = tested on: E. coli ATCC 25922 (β-lac-ve); assay: Disk zone of inhibition, antibiotic + Compound-1 on same disk (Methodology 2); format: cell-based, Escherichia coli; settings: CAZ 30 μg or IPM 10 μg disk alone; ATCC 25922
[12] = tested on: K. pneumoniae ATCC 700603 (SHV18); assay: as above; format: cell-based, Klebsiella pneumoniae; settings: CAZ 30 μg or IPM 10 μg disk alone
From the text: as §1
as §2, with “Compound-1. Results:” for “Compound-1.”
as §3

[13] = tested on: KPC2 K. pneumoniae ATCC BAA 1705; assay: Mice systemic infection model; format: in vivo; settings: Klebsiella pneumoniae, BAA1705; mice, sub-cutaneous; read-out: ED50 of Doripenem alone
Protocol: Female Swiss Albino mice, weighing 18-22 g were used for all studies. For each dose group, 5 or 6 mice were included. Study protocols were reviewed and approved by Institutional Animal Ethical Committee, Orchid Research Laboratories Limited. Mice were housed in individually ventilated cages provided with food and water ad libitum, throughout the study period. From overnight culture in Brain-Heart Infusion agar medium, challenge inoculum with required bacterial density was prepared in normal saline containing Hog gastric mucin. In studies involved with doripenem, washed bacterial cells was used. Each mouse was infected […] inoculum by intra-peritoneal injection.
Infected mice were dosed sub-cutaneously, with drug preparations at three different time points post-infection.
Imipenem with BLI combinations: Increasing concentrations of Imipenem as single agent or in combination with fixed concentration of BLIs were used to dose infected mice, sub-cutaneously. In this experiment Imipenem was always administered along with cilastatin. Doripenem with BLI combinations: Increasing concentrations of doripenem as single agent or in combination with fixed concentration of BLIs were used to dose infected mice, sub-cutaneously.
Survival of the treated mice were monitored twice a day, up to 7 days post-infection. Efficacy dose 50 (ED50) was calculated by Reed and Muench method (Reed, L. J.; Muench, H. “A simple method of estimating fifty percent endpoints”. The American Journal of Hygiene, 1938, 27: 493-497.).

[14] = tested on: KPC2 K. pneumoniae ATCC BAA 1705; assay: Neutropenic mice thigh infection model (human adapted model); format: in vivo; settings: Doripenem 70 mg/kg fractionated over 5.5 h; end point 8 h
Protocol: Female Swiss Albino mice weighing 24-30 g were used for all studies. Study protocols were reviewed and approved by Institutional Animal Ethical Committee, Orchid Research Laboratories Limited. Mice were rendered neutropenic by intra-peritoneal cyclophosphamide injections. Log phase culture in brain heart infusion broth was injected in to mice thighs. Imipenem or Doripenen alone or in combination were administered sub-cutaneously in decreasing fractionated doses every 15 minutes over the period of 5.5 h (Flückiger, U. et al. “Integration of pharmacokinetics and pharmacodynamics of Imipenem in a human-adapted mouse model’. Antimicrobial Agents and Chemother, 1991, 35(9): 1905-1910). The Compound-1 or tazobactam was administered sub-cutaneously as bolus dose at the start of dosing. Efficacy end point was 6 h in Imipenem studies and 8 h in Doripenen studies.
Three experiments were carried out where Doripenen alone or in combination with compound-1 or tazobactam (two experiments) were evaluated. Doripenem 70 mg/kg was administered in fractionated doses over the period of 5.5 h (Fluckiger, U. et al. “Integration of pharmacokinetics and pharmacodynamics of Imipenem in a human-adapted mouse model’. Antimicrobial Agents and Chemother., 1991, 35(9): 1905-1910). Compound-1 or tazobactam was administered as bolus dose at initiation of therapy. Efficacy end point was 8 h after initiation of therapy.

Row | SMILES | MIC of Imipenem in combination with BLI [1] | MIC of Imipenem in combination with BLI [2] | MIC of Piperacillin with inhibitor (E. coli BAA-201 (TEM-3); inhibitor at 1 μg/mL) | MIC of Piperacillin with inhibitor (E. coli BAA-201 (TEM-3); inhibitor at 2 μg/mL) | MIC of Piperacillin with inhibitor (E. coli BAA-201 (TEM-3); inhibitor at 4 μg/mL) | MIC of Piperacillin with inhibitor ([3]; inhibitor at 1 μg/mL) | MIC of Piperacillin with inhibitor ([3]; inhibitor at 2 μg/mL) | MIC of Piperacillin with inhibitor ([3]; inhibitor at 4 μg/mL) | MIC of Imipenem in combination with BLI ([4]; BLI at 4 μg/mL, ATCC BAA-1705) | MIC of Imipenem in combination with BLI ([4]; BLI at 16 μg/mL, ATCC BAA-1705) | Activity with imipenem against the KPC (2 & 3) producing strains, in words [4] | MIC of Piperacillin with inhibitor (E. coli BAA-200 (SHV-4); inhibitor at 1 μg/mL) | MIC of Piperacillin with inhibitor (E. coli BAA-200 (SHV-4); inhibitor at 2 μg/mL) | MIC of Piperacillin with inhibitor (E. coli BAA-200 (SHV-4); inhibitor at 4 μg/mL) | MIC of Piperacillin with inhibitor ([5]; inhibitor at 1 μg/mL) | MIC of Piperacillin with inhibitor ([5]; inhibitor at 2 μg/mL) | MIC of Piperacillin with inhibitor ([5]; inhibitor at 4 μg/mL) | MIC of Imipenem in combination with BLI [6] | MIC of Piperacillin with inhibitor (E. coli BAA-197 (TEM-12); inhibitor at 1 μg/mL) | MIC of Piperacillin with inhibitor (E. coli BAA-197 (TEM-12); inhibitor at 2 μg/mL) | other results
1 | C[C@]1(Cn2ccnc2)[C@H](C(=O)O)N2C(=O)C[C@H]2S1(=O)=O [Compound-M, (2S,3S,5R)-3-(imidazol-1-ylmethyl)-3-methyl-4,4,7-trioxo-4-thia-1-aza-bicyclo[3.2.0]heptane-2-carboxylic acid] | 8 µg/mL | 8 µg/mL | 4 µg/mL | 4 µg/mL | 4 µg/mL | 16 µg/mL | 32 µg/mL | 16 µg/mL | 8 µg/mL | 8 µg/mL | only moderately active | >128 µg/mL | >128 µg/mL | >128 µg/mL | 64 µg/mL | >128 µg/mL | >128 µg/mL | 64 µg/mL | 4 µg/mL | 8 µg/mL | MIC of Piperacillin with inhibitor (E. coli BAA-197 (TEM-12); inhibitor at 4 μg/mL): 4 µg/mL; MIC of Piperacillin with inhibitor (E. coli BAA-199 (SHV-3); inhibitor at 1 μg/mL): >128 µg/mL; MIC of Piperacillin with inhibitor (E. coli BAA-199 (SHV-3); inhibitor at 2 μg/mL): >128 µg/mL; MIC of Piperacillin with inhibitor (E. coli BAA-199 (SHV-3); inhibitor at 4 μg/mL): >128 µg/mL; MIC of Imipenem in combination with BLI (E. coli Ecoli233 (KPC3) [7]; BLI at 4 μg/mL): 16 µg/mL; MIC of Imipenem in combination with BLI (E. coli Ecoli233 (KPC3) [7]; BLI at 16 μg/mL): 16 µg/mL; MIC of Piperacillin with inhibitor (E. coli BAA-198 (TEM-26); inhibitor at 1 μg/mL): 4 µg/mL; MIC of Piperacillin with inhibitor (E. coli BAA-198 (TEM-26); inhibitor at 2 μg/mL): 4 µg/mL; MIC of Piperacillin with inhibitor (E. coli BAA-198 (TEM-26); inhibitor at 4 μg/mL): 4 µg/mL
2 | C[n+]1ccn(C[C@@]2(C)[C@H](C(=O)[O-])N3C(=O)C[C@H]3S2(=O)=O)c1 [Compound-12, (2S,3S,5R)-3-Methyl-3-(3-methyl-imidazol-3-ium-1-ylmethyl)-4,4,7-trioxo-4-thia-1-azabicyclo[3.2.0]heptane-2-carboxylate] | 2 µg/mL | 8 µg/mL | 2 µg/mL | 4 µg/mL | 4 µg/mL | 8 µg/mL | 16 µg/mL | 8 µg/mL | 4 µg/mL | 4 µg/mL | improved activity | 32 µg/mL | 8 µg/mL | 4 µg/mL | 8 µg/mL | 16 µg/mL | >128 µg/mL | 64 µg/mL | 4 µg/mL | 4 µg/mL | MIC of Piperacillin with inhibitor (E. coli BAA-197 (TEM-12); inhibitor at 4 μg/mL): 4 µg/mL; MIC of Piperacillin with inhibitor (E. coli BAA-199 (SHV-3); inhibitor at 1 μg/mL): >128 µg/mL; MIC of Piperacillin with inhibitor (E. coli BAA-199 (SHV-3); inhibitor at 2 μg/mL): >128 µg/mL; MIC of Piperacillin with inhibitor (E. coli BAA-199 (SHV-3); inhibitor at 4 μg/mL): 2 µg/mL; MIC of Imipenem in combination with BLI (E. coli Ecoli233 (KPC3) [7]; BLI at 4 μg/mL): 4 µg/mL; MIC of Imipenem in combination with BLI (E. coli Ecoli233 (KPC3) [7]; BLI at 16 μg/mL): 1 µg/mL; MIC of Piperacillin with inhibitor (E. coli BAA-198 (TEM-26); inhibitor at 1 μg/mL): 4 µg/mL; MIC of Piperacillin with inhibitor (E. coli BAA-198 (TEM-26); inhibitor at 2 μg/mL): 4 µg/mL; MIC of Piperacillin with inhibitor (E. coli BAA-198 (TEM-26); inhibitor at 4 μg/mL): 4 µg/mL
3 | CC(C)(O/N=C(\C(=O)N[C@@H]1C(=O)N2C(C(=O)[O-])=C(C[n+]3ccccc3)CS[C@H]12)c1csc(N)n1)C(=O)O [Ceftazidime] |  |  |  |  |  |  |  |  |  |  |  |  |  |  |  |  |  |  |  |  | Zone of inhibition (ZOI), antibiotic alone [8]: 12 mm; MIC ([4]; Klebsiella pneumoniae, ATCCBAA1705, no BLI, ATCC BAA-1705, read-out: MIC of antibiotic alone (no BLI)): > 128 µg/mL; Zone of inhibition (ZOI), antibiotic alone (E. coli Ecoli233 (KPC3) [9]): 11 mm; MIC of antibiotic alone (no BLI) [10]: >32 µg/mL; Zone of inhibition (ZOI), antibiotic alone [11]: 25 mm; Zone of inhibition (ZOI), antibiotic alone [12]: 12 mm
4 | C[C@@H](O)[C@H]1C(=O)N2C(C(=O)O)=C(S[C@@H]3CN[C@H](CNS(N)(=O)=O)C3)[C@H](C)[C@H]12 [Doripenem] |  |  |  |  |  |  |  |  |  |  |  |  |  |  |  |  |  |  |  |  | ED50 [13]: 14.1 mg/kg; Bacterial load (range), Doripenem alone [14]: 5.4E+06-2.6E+07 CFU/thigh
